Where “and” joins values, the source holds several entries; their conditions need not be identical. Identical values can stand only once. Records with an inconclusive call do not appear.
Test system: BDF1 mice, colon carcinoma 38 sc, T/C %
Assay: NCI In Vivo Anticancer Drug Screen. Data for tumor model Colon Carcinoma 38 (subcutaneous) in B6D2F1 (BDF1) mice
In short: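 T/C readout: treated group (T) measurement over vehicle control group (C) measurement. Endpoint is survival or tumor size in mice bearing a transplanted tumor.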

[1] = endpoint: median tumor weight (est.), dose: 50.0 mg/kg/injection, schedule: Q07DX002 (ip), vehicle: saline with Tween-80, higher = larger tumour
[2] = endpoint: median tumor weight (est.), dose: 100.0 mg/kg/injection, schedule: Q07DX002 (ip), vehicle: saline with Tween-80, higher = larger tumour
[3] = endpoint: median tumor weight (est.), dose: 200.0 mg/kg/injection, schedule: Q07DX002 (ip), vehicle: saline with Tween-80, higher = larger tumour

## CCCCNC(C)[C@]1(O)Cc2c(O)c3c(c(O)c2[C@@H](OC2CC(N)C(O)C(C)O2)C1)C(=O)c1c(OC)cccc1C3=O (stereo not given in full)
endpoint: median survival time, dose: 16.0 mg/kg/injection, schedule: Q07DX002 (sc), vehicle: saline, higher = longer survival
  T/C: 113 % of control
endpoint: median survival time, dose: 26.0 mg/kg/injection, schedule: Q07DX002 (sc), vehicle: saline, higher = longer survival
  T/C: 151 % of control
endpoint: median tumor weight (est.), dose: 3.38 mg/kg/injection, schedule: Q07DX002 (ip), vehicle: saline, higher = larger tumour
  T/C: 89 % of control
endpoint: median tumor weight (est.), dose: 6.75 mg/kg/injection, schedule: Q07DX002 (ip), vehicle: saline, higher = larger tumour
  T/C: 88 % of control
endpoint: median tumor weight (est.), dose: 13.5 mg/kg/injection, schedule: Q07DX002 (ip), vehicle: saline, higher = larger tumour
  T/C: 81 % of control

## O=C(O)CC(=O)O.[NH-]C1CCCCC1[NH-].[Pt+2] (stereo not given)
endpoint: median tumor weight (est.), dose: 12.5 mg/kg/injection, schedule: Q07DX002 (ip), vehicle: dextrose, higher = larger tumour
  T/C: 84 % of control
endpoint: median tumor weight (est.), dose: 20.0 mg/kg/injection, schedule: Q07DX003 (ip), vehicle: dextrose, higher = larger tumour
  T/C: 120 % of control
endpoint: median tumor weight (est.), dose: 25.0 mg/kg/injection, schedule: Q07DX002 (ip), vehicle: dextrose, higher = larger tumour
  T/C: 55 % of control and 64 % of control
endpoint: median tumor weight (est.), dose: 40.0 mg/kg/injection, schedule: Q07DX003 (ip), vehicle: dextrose, higher = larger tumour
  T/C: 48 % of control
endpoint: median tumor weight (est.), dose: 50.0 mg/kg/injection, schedule: Q07DX002 (ip), vehicle: dextrose, higher = larger tumour
  T/C: 12 % of control and 35 % of control
endpoint: median tumor weight (est.), dose: 80.0 mg/kg/injection, schedule: Q07DX003 (ip), vehicle: dextrose, higher = larger tumour
  T/C: 9 % of control

## C/C=C/C1=CC(=O)C(O)C1O (stereo not given)
endpoint: median tumor weight (est.), dose: 90.0 mg/kg/injection, schedule: Q07DX002 (ip), vehicle: water, higher = larger tumour
  T/C: 75 % of control
endpoint: median tumor weight (est.), dose: 180.0 mg/kg/injection, schedule: Q07DX002 (ip), vehicle: water, higher = larger tumour
  T/C: 170 % of control

## C[C@]12CC[C@@H]3c4ccc(OC(=O)Cc5ccc(N(CCCl)CCCl)cc5)cc4CC[C@H]3[C@@H]1CC[C@@H]2OC(=O)Cc1ccc(N(CCCl)CCCl)cc1
[1]
  T/C: 185 % of control
[2]
  T/C: 176 % of control
[3]
  T/C: 173 % of control and 201 % of control
endpoint: median tumor weight (est.), dose: 400.0 mg/kg/injection, schedule: Q07DX002 (ip), vehicle: saline with Tween-80, higher = larger tumour
  T/C: 256 % of control
endpoint: median tumor weight (est.), dose: 800.0 mg/kg/injection, schedule: Q07DX002 (ip), vehicle: saline with Tween-80, higher = larger tumour
  T/C: 195 % of control

## CCN(C)N=Nc1ccc(C(N)=O)cc1
endpoint: median tumor weight (est.), dose: 12.5 mg/kg/injection, schedule: Q07DX002 (ip), vehicle: Klucel (hydroxypropylcellulose) (HPC), higher = larger tumour
  T/C: 82 % of control and 84 % of control
endpoint: median tumor weight (est.), dose: 25.0 mg/kg/injection, schedule: Q07DX002 (ip), vehicle: Klucel (hydroxypropylcellulose) (HPC), higher = larger tumour
  T/C: 82 % of control and 87 % of control
endpoint: median tumor weight (est.), dose: 50.0 mg/kg/injection, schedule: Q07DX002 (ip), vehicle: Klucel (hydroxypropylcellulose) (HPC), higher = larger tumour
  T/C: 56 % of control and 63 % of control and 76 % of control
endpoint: median tumor weight (est.), dose: 100.0 mg/kg/injection, schedule: Q07DX002 (ip), vehicle: Klucel (hydroxypropylcellulose) (HPC), higher = larger tumour
  T/C: 61 % of control and 77 % of control and 78 % of control

## Cc1[nH]c(=O)[nH]c(=O)c1N(CCF)CCCl
endpoint: median tumor weight (est.), dose: 16.0 mg/kg/injection, schedule: Q07DX002 (ip), vehicle: Klucel (hydroxypropylcellulose) (HPC), higher = larger tumour
  T/C: 69 % of control and 71 % of control
endpoint: median tumor weight (est.), dose: 32.0 mg/kg/injection, schedule: Q07DX002 (ip), vehicle: Klucel (hydroxypropylcellulose) (HPC), higher = larger tumour
  T/C: 67 % of control and 79 % of control and 82 % of control
endpoint: median tumor weight (est.), dose: 64.0 mg/kg/injection, schedule: Q07DX002 (ip), vehicle: Klucel (hydroxypropylcellulose) (HPC), higher = larger tumour
  T/C: 38 % of control
endpoint: median tumor weight (est.), dose: 64.0 mg/kg/injection, schedule: Q07DX003 (ip), vehicle: Klucel (hydroxypropylcellulose) (HPC), higher = larger tumour
  T/C: 21 % of control and 28 % of control

## N#Cc1nc(C#N)c(Sc2ccccc2)c(Sc2ccccc2)c1Sc1ccccc1
endpoint: median tumor weight (est.), dose: 6.25 mg/kg/injection, schedule: Q07DX002 (ip), vehicle: saline with Tween-80, higher = larger tumour
  T/C: 93 % of control
endpoint: median tumor weight (est.), dose: 12.5 mg/kg/injection, schedule: Q07DX002 (ip), vehicle: saline with Tween-80, higher = larger tumour
  T/C: 30 % of control
endpoint: median tumor weight (est.), dose: 25.0 mg/kg/injection, schedule: Q07DX002 (ip), vehicle: saline with Tween-80, higher = larger tumour
  T/C: 67 % of control
[1]
  T/C: 78 % of control
[2]
  T/C: 92 % of control
[3]
  T/C: 54 % of control

## O=[N+]([O-])O.[Ga]
endpoint: median tumor weight (est.), dose: 12.5 mg/kg/injection, schedule: Q07DX003 (ip), vehicle: saline, higher = larger tumour
  T/C: 122 % of control
endpoint: median tumor weight (est.), dose: 25.0 mg/kg/injection, schedule: Q07DX002 (ip), vehicle: saline, higher = larger tumour
  T/C: 159 % of control
endpoint: median tumor weight (est.), dose: 25.0 mg/kg/injection, schedule: Q07DX003 (ip), vehicle: saline, higher = larger tumour
  T/C: 121 % of control
endpoint: median tumor weight (est.), dose: 50.0 mg/kg/injection, schedule: Q07DX002 (ip), vehicle: saline, higher = larger tumour
  T/C: 78 % of control
endpoint: median tumor weight (est.), dose: 100.0 mg/kg/injection, schedule: Q07DX002 (ip), vehicle: saline, higher = larger tumour
  T/C: 81 % of control
endpoint: median tumor weight (est.), dose: 100.0 mg/kg/injection, schedule: Q07DX003 (ip), vehicle: saline, higher = larger tumour
  T/C: 44 % of control

## Nc1nc2nc[nH]c2c(=O)[nH]1
endpoint: median tumor weight (est.), dose: 100.0 mg/kg/injection, schedule: Q07DX002 (ip), vehicle: suspension in saline, higher = larger tumour
  T/C: 90 % of control
endpoint: median tumor weight (est.), dose: 200.0 mg/kg/injection, schedule: Q07DX002 (ip), vehicle: suspension in saline, higher = larger tumour
  T/C: 83 % of control

Reference: PubChem BioAssay AID212 (DTP/NCI, 2004)
